Laboratory results reported in ChEMBL document CHEMBL1201862, “PubChem BioAssay data set” (2004).
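Cells were grown in 96-well plates and exposed to each compound for 48 hours at five concentrations; endpoints were interpolated linearly between bracketing concentrations, or set to the highest concentration if not reached. GI50: concentration for 50% inhibition of growth.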 The source made the active and inactive calls. No stated cut-off is given here; in the data, active = GI50 up to about 1.1 µM and inactive = higher.

Columns and labels:
Test in all cases: DTP human tumour cell line panel, 48 h
NCI-H460 = test system: NCI-H460
HT-29 = test system: HT-29
ACHN = test system: ACHN
NCI-H522 = test system: NCI-H522
COLO 205 = test system: COLO 205
RXF 393 = test system: RXF 393
SK-MEL-28 = test system: SK-MEL-28
U-251 = test system: U-251
SN12C = test system: SN12C
UACC-62 = test system: UACC-62
CAKI-1 = test system: CAKI-1
Malme-3M = test system: Malme-3M
HCT-116 = test system: HCT-116
OVCAR-3 = test system: OVCAR-3
K562 = test system: K562
MDA-MB-231 = test system: MDA-MB-231
T47D = test system: T47D
PC-3 = test system: PC-3
DU-145 = test system: DU-145

Row | Compound | GI50 (NCI-H460) | GI50 (HT-29) | GI50 (ACHN) | GI50 (NCI-H522) | GI50 (COLO 205) | GI50 (RXF 393) | GI50 (SK-MEL-28) | GI50 (U-251) | GI50 (SN12C) | GI50 (UACC-62) | GI50 (CAKI-1) | GI50 (Malme-3M) | GI50 (HCT-116) | GI50 (OVCAR-3) | GI50 (K562) | GI50 (MDA-MB-231) | GI50 (T47D) | GI50 (PC-3) | GI50 (DU-145)
1 | C#CCN(N=O)C(=O)NCCCCC(NC(C)=O)C(=O)NCc1ccccc1 (stereo not drawn) | > 100 µM (inactive) | > 100 µM (inactive) | > 100 µM (inactive) | 25.5 µM (inactive) | > 100 µM (inactive) | > 100 µM (inactive) | > 100 µM (inactive) | > 100 µM (inactive) | > 100 µM (inactive) | > 100 µM (inactive) | > 100 µM (inactive) | > 100 µM (inactive) | > 100 µM (inactive) | > 100 µM (inactive) | 54.1 µM (inactive) | – | – | – | –
2 | Cc1cccc2cc3cccc(C(=O)NCCN(C)C)c3nc12 | < 0.01 µM (active) | 0.131 µM (active) | 0.0257 µM (active) | 0.151 µM (active) | 0.0798 µM (active) | 0.269 µM (active) | 0.519 µM (active) | 0.0689 µM (active) | 0.063 µM (active) | 0.129 µM (active) | 0.027 µM (active) | 0.139 µM (active) | 0.0354 µM (active) | 0.366 µM (active) | 0.203 µM (active) | – | – | – | –
3 | Cc1ccc(S(=O)(=O)/N=C(\NN)Nc2ccc(Cl)cc2)cc1 | > 100 µM (inactive) | > 100 µM (inactive) | > 100 µM (inactive) | – | > 100 µM (inactive) | 60.7 µM (inactive) | > 100 µM (inactive) | > 100 µM (inactive) | > 100 µM (inactive) | > 100 µM (inactive) | > 100 µM (inactive) | – | > 100 µM (inactive) | > 100 µM (inactive) | > 100 µM (inactive) | > 100 µM (inactive) | 88.3 µM (inactive) | > 100 µM (inactive) | > 100 µM (inactive)
4 | CC(C)[Si](OCC1CC(C#N)OC(C)(C)O1)(C(C)C)C(C)C (stereo not drawn) | 16.5 µM (inactive) | 14.6 µM (inactive) | 16 µM (inactive) | 18.2 µM (inactive) | 17.3 µM (inactive) | 17.1 µM (inactive) | 39.4 µM (inactive) | 15.8 µM (inactive) | 32.4 µM (inactive) | 30.1 µM (inactive) | 27.6 µM (inactive) | 22.9 µM (inactive) | 16.5 µM (inactive) | 15.6 µM (inactive) | 19 µM (inactive) | – | – | – | –
5 | Cc1cccc(C(C)(C)C)c1NC(=O)CCl | > 100 µM (inactive) | > 100 µM (inactive) | > 100 µM (inactive) | > 100 µM (inactive) | > 100 µM (inactive) | > 100 µM (inactive) | > 100 µM (inactive) | > 100 µM (inactive) | > 100 µM (inactive) | > 100 µM (inactive) | > 100 µM (inactive) | > 100 µM (inactive) | > 100 µM (inactive) | > 100 µM (inactive) | > 100 µM (inactive) | – | – | – | –
6 | Cc1cc2[nH]c3c(C#N)c(-c4ccccc4)c(/N=N/c4cccc(C(F)(F)F)c4)c(=O)n3c2cc1C | 21.4 µM (inactive) | – | 37.5 µM (inactive) | 16 µM (inactive) | 42.2 µM (inactive) | 54.5 µM (inactive) | 39 µM (inactive) | 39.3 µM (inactive) | 27.9 µM (inactive) | – | 32 µM (inactive) | 42.9 µM (inactive) | 13.7 µM (inactive) | 8.55 µM (inactive) | 0.0382 µM (active) | 85.5 µM (inactive) | 20.3 µM (inactive) | 32.2 µM (inactive) | –
7 | CC(=O)Nc1ccc(C2=N/C(=C\c3ccc(Cl)cc3)C(=O)O2)cc1 | 69.5 µM (inactive) | 60.7 µM (inactive) | 27.4 µM (inactive) | 25.4 µM (inactive) | 39.2 µM (inactive) | 53.5 µM (inactive) | > 100 µM (inactive) | 38.5 µM (inactive) | 28.2 µM (inactive) | 40.6 µM (inactive) | > 100 µM (inactive) | 87.7 µM (inactive) | 36 µM (inactive) | 27.8 µM (inactive) | 19.5 µM (inactive) | – | – | – | –
8 | CCOC(=O)c1cc(C(=O)O)c(=O)n2c1[nH]c1ccccc12 | 89.9 µM (inactive) | > 100 µM (inactive) | > 100 µM (inactive) | 26.7 µM (inactive) | > 100 µM (inactive) | 24.3 µM (inactive) | 26.2 µM (inactive) | 83.4 µM (inactive) | > 100 µM (inactive) | 44.5 µM (inactive) | > 100 µM (inactive) | > 100 µM (inactive) | 40.7 µM (inactive) | > 100 µM (inactive) | > 100 µM (inactive) | – | – | – | –
9 | Cn1c(=O)c(C(c2ccccc2)c2c(O)c3ccccc3n(C)c2=O)c(O)c2ccccc21 | > 100 µM (inactive) | > 100 µM (inactive) | > 100 µM (inactive) | > 100 µM (inactive) | > 100 µM (inactive) | > 100 µM (inactive) | > 100 µM (inactive) | > 100 µM (inactive) | > 100 µM (inactive) | > 100 µM (inactive) | > 100 µM (inactive) | > 100 µM (inactive) | > 100 µM (inactive) | > 100 µM (inactive) | > 100 µM (inactive) | – | – | – | –
10 | CS(=O)(=O)OC1CCC2(C#N)CCC1C2=O (stereo not drawn) | 95.3 µM (inactive) | > 100 µM (inactive) | > 100 µM (inactive) | 86.5 µM (inactive) | 70.8 µM (inactive) | > 100 µM (inactive) | > 100 µM (inactive) | > 100 µM (inactive) | > 100 µM (inactive) | > 100 µM (inactive) | > 100 µM (inactive) | > 100 µM (inactive) | > 100 µM (inactive) | > 100 µM (inactive) | > 100 µM (inactive) | – | – | – | –
11 | CCc1cccc(C)c1NC(=S)NC(=O)c1ccccc1C(=O)NC(=S)Nc1c(C)cccc1CC | 67.8 µM (inactive) | 43 µM (inactive) | > 100 µM (inactive) | 18.2 µM (inactive) | 61.1 µM (inactive) | > 100 µM (inactive) | > 100 µM (inactive) | 67.6 µM (inactive) | > 100 µM (inactive) | 37.7 µM (inactive) | 56.2 µM (inactive) | > 100 µM (inactive) | 71.4 µM (inactive) | 23.8 µM (inactive) | 38.9 µM (inactive) | – | – | – | –
12 | CN(C)CCS/C(=N\c1ccccc1)N1CCCCC1 | 17.5 µM (inactive) | 17.9 µM (inactive) | 16.5 µM (inactive) | 14.7 µM (inactive) | 15.2 µM (inactive) | 18.2 µM (inactive) | 14.8 µM (inactive) | 41.8 µM (inactive) | 17.7 µM (inactive) | 16 µM (inactive) | 47.6 µM (inactive) | 18.9 µM (inactive) | 19.7 µM (inactive) | 16 µM (inactive) | 28.4 µM (inactive) | – | – | – | –
13 | COc1c(O)c(OC)c2oc(-c3ccc(O)c(O)c3)c(OC)c(=O)c2c1O | 35.9 µM (inactive) | 30.7 µM (inactive) | 31.4 µM (inactive) | 10.5 µM (inactive) | 27.1 µM (inactive) | – | 18.7 µM (inactive) | 16.9 µM (inactive) | 56.9 µM (inactive) | 7.52 µM (inactive) | 26.9 µM (inactive) | 6.24 µM (inactive) | 31.2 µM (inactive) | 2.85 µM (inactive) | 18.5 µM (inactive) | 23.1 µM (inactive) | 3.28 µM (inactive) | 38.9 µM (inactive) | 24.2 µM (inactive)
14 | CC(=O)c1cccc(Nc2nc3ccccc3c3occc23)c1 | 20.5 µM (inactive) | 6.22 µM (inactive) | 14.3 µM (inactive) | – | > 100 µM (inactive) | 10.8 µM (inactive) | 27.3 µM (inactive) | 17.9 µM (inactive) | 13.2 µM (inactive) | – | 32.8 µM (inactive) | 19.9 µM (inactive) | 18.2 µM (inactive) | 34.2 µM (inactive) | > 100 µM (inactive) | 24.8 µM (inactive) | 21 µM (inactive) | 31.3 µM (inactive) | 33.6 µM (inactive)
15 | Cc1cccc(NC(=O)C(=O)C(C2OC(=O)c3ccccc32)[N+](=O)[O-])c1C (stereo not drawn) | 6 µM (inactive) | 16.7 µM (inactive) | 10.9 µM (inactive) | 2 µM (inactive) | 15.4 µM (inactive) | 6.87 µM (inactive) | 12.6 µM (inactive) | 3.64 µM (inactive) | 6.34 µM (inactive) | 10.9 µM (inactive) | 7.43 µM (inactive) | 3.79 µM (inactive) | 5.96 µM (inactive) | 2.08 µM (inactive) | 4.42 µM (inactive) | – | – | – | –
16 | Cc1ccc(/C=C/C(=O)c2ccc(Cl)c(Cl)c2)cc1 | > 100 µM (inactive) | > 100 µM (inactive) | > 100 µM (inactive) | > 100 µM (inactive) | > 100 µM (inactive) | 84.1 µM (inactive) | > 100 µM (inactive) | > 100 µM (inactive) | > 100 µM (inactive) | > 100 µM (inactive) | > 100 µM (inactive) | > 100 µM (inactive) | > 100 µM (inactive) | > 100 µM (inactive) | > 100 µM (inactive) | – | – | – | –
17 | Cc1cc(Br)cc(C)c1NC(=O)C(=O)CC(=O)c1sc(-n2nc(-c3ccccc3)cc2-c2ccccc2)nc1C | > 100 µM (inactive) | > 100 µM (inactive) | > 100 µM (inactive) | > 100 µM (inactive) | > 100 µM (inactive) | > 100 µM (inactive) | > 100 µM (inactive) | > 100 µM (inactive) | > 100 µM (inactive) | > 100 µM (inactive) | > 100 µM (inactive) | > 100 µM (inactive) | > 100 µM (inactive) | > 100 µM (inactive) | > 100 µM (inactive) | – | – | – | –
18 | CN(C)c1ncnc2c1Cc1ccccc1C(=O)N2C | > 100 µM (inactive) | > 100 µM (inactive) | > 100 µM (inactive) | > 100 µM (inactive) | > 100 µM (inactive) | > 100 µM (inactive) | > 100 µM (inactive) | > 100 µM (inactive) | > 100 µM (inactive) | > 100 µM (inactive) | > 100 µM (inactive) | > 100 µM (inactive) | > 100 µM (inactive) | > 100 µM (inactive) | > 100 µM (inactive) | – | – | – | –
